According to US4731459A, “Novel anti-ulcer agents and quassinoids” (Shionogi & Co., Ltd., priority 1985, dated 1988):
Like-named read-outs stand apart in the source and are kept apart here.

Experiments:
[1] = tested on: ulcer caused by indomethacin (mucosal lesions in the glandular part of the stomach); test: Effect on ulcer caused by indomethacin; assay type: in vivo, male SD rats; conditions: Rattus norvegicus, ip, read-out: % Inhibition of lesion formation
Procedure: Indomethacin is subcutaneously administered to male SD rats (body weight: 200-220 g) fasted for 24 hours at a dose of 30 mg/kg. The stomachs are excised 7 hours after the administration. The total length of mucosal lesions occurred in the glandular part of the stomach is measured and % inhibition of lesion formation is calculated in comparison with those in the control group. Fifteen minutes before the administration of indomethacin, the test compounds are intraperitoneally administered in a form of aqueous solution.

Acute Toxicities = conditions: mouse, in vivo, ip; intraperitoneal, aqueous solution; male ddY mice
Source text: Male ddY mice (Body weight 25-28 g each) are employed for the acute toxicity test. The test compounds are intraperitoneally administered in a form of aqueous solution.

[2] = 3.0 mg/Kg, intraperitoneal, 15 min before indomethacin 30 mg/kg s.c., male SD rats, 7 hours
[3] = 0.3 mg/Kg, intraperitoneal, 15 min before indomethacin 30 mg/kg s.c., male SD rats, 7 hours
[4] = 1.0 mg/Kg, intraperitoneal, 15 min before indomethacin 30 mg/kg s.c., male SD rats, 7 hours

Compound	inhibition in vivo at 3 mg/kg ([1]; 7 h) [%]	inhibition in vivo at 3 mg/kg [1, 2] [%]	LD50 (Acute Toxicities) [mg/kg]	other results
CC1=CC(=O)[C@@H](O)[C@]2(C)[C@H]3[C@@]4(O)OC[C@@]35[C@@H](C[C@@H]12)OC(=O)[C@H](O)[C@@]5(O)[C@]1(CO1)[C@H]4O [IIe, 13α,18-Epoxy-13,18-dihydroeurycomanone]	4.9	–	–	–
CC1CC(=O)[C@@H](O)[C@]2(C)[C@H]3[C@@]4(O)OC[C@@]35[C@@H](C[C@@H]12)OC(=O)C[C@H]5C(C)[C@H]4O (stereo partly shown) [IIc, 3,4,13,18-Tetrahydroailanthone]	–	13.7	> 30	–
CC1=CC(=O)[C@@H](O)[C@]2(C)[C@H]3[C@@]4(O)OC[C@@]35[C@@H](C[C@@H]12)OC(=O)C[C@H]5C(C)[C@H]4O (stereo partly shown) [IId, 13,18-dihydroailanthone]	67.8	–	> 30	–
C=C1[C@@H](O)[C@]2(O)OC[C@]34[C@H]2[C@@]2(C)[C@H](O)C(=O)CC(C)[C@@H]2C[C@H]3OC(=O)[C@H](O)[C@@]14O (single isomer, unassigned) [IIh, 3,4-Dihydroeurycomanone]	-10	–	–	–
CC1=CC(=O)[C@@H](O)[C@]2(C)[C@H]3[C@@]4(O)OC[C@@]35[C@@H](C[C@@H]12)OC(=O)[C@H](O)[C@@]5(O)[C@H](C)[C@H]4O [IIg-B, 13α,18-Dihydro compound]	-3.1	–	–	–
CC1=CC(=O)[C@@H](O)[C@]2(C)[C@H]3[C@@]4(O)OC[C@@]35[C@@H](C[C@@H]12)OC(=O)C[C@H]5[C@]1(CO1)[C@H]4O [IIa, 13α,18-Epoxy-13,18-dihydroailanthone]	–	100	> 100	inhibition in vivo at 0.3 mg/kg [1, 3]: 36.8%; inhibition in vivo at 1 mg/kg [1, 4]: 77.1%
CC1=CC(=O)[C@@H](O)[C@]2(C)[C@H]3[C@@]4(O)OC[C@@]35[C@@H](C[C@@H]12)OC(=O)[C@H](O)[C@@]5(O)[C@@H](C)[C@H]4O [IIg-A, 13β,18-Dihydro compound]	47.1	–	–	–
CC1=CC(=O)[C@@H](O)[C@]2(C)[C@H]3[C@@]4(O)OC[C@@]35[C@@H](C[C@@H]12)OC(=O)C[C@H]5[C@@]1(CO1)[C@H]4O [IIb, 13β,18-Epoxy-1,3,18-dihydroailanthone]	–	74.4	> 30	–
CC1=CC(=O)[C@@H](O)[C@]2(C)[C@H]3[C@@]4(O)OC[C@@]35[C@@H](C[C@@H]12)OC(=O)[C@H](O)[C@@]5(O)[C@@]1(CO1)[C@H]4O [IIf, 13β,18-Epoxy-13,18-dihydroeurycomanone]	–	–	5.5	inhibition in vivo at 0.1 mg/kg ([1]; 7 h): 26.4%; inhibition in vivo at 0.3 mg/kg ([1]; 7 h): 71.3%; inhibition in vivo at 1 mg/kg ([1]; 7 h): 92.6%
C=C1[C@@H](O)[C@]2(O)OC[C@]34[C@H]2[C@@]2(C)[C@H](O)C(=O)C=C(C)[C@@H]2C[C@H]3OC(=O)[C@H](O)[C@@]14O [Ib, eurycomanone]	–	–	18.9	inhibition in vivo at 0.1 mg/kg ([1]; 0.1 mg/Kg, intraperitoneal, 15 min before indomethacin 30 mg/kg s.c., male SD rats, 7 hours): 12.5%; inhibition in vivo at 0.3 mg/kg [1, 3]: 58.5%; inhibition in vivo at 1 mg/kg [1, 4]: 94.7%
